Where no end group is shown, it is not given here.

The test system of test [1] is Escherichia coli (NBRC14237). In kind it is cell-based. The note with it: for Antimicrobial activity against Escherichia coli (in words): segments with Na^4vSS less than − 30, Supplementary Fig. S1; for MIC, E. coli (NBRC 14237): NBRC14237. The protocol: (§1) Antimicrobial activities of the peptides were measured as described previously. Synthetic peptides were added to the microbial suspension in the individual wells of a microplate at final concentrations of 3.125, 6.25, 12.5, and 25 μM. The relative activities (RA) were calculated by the equation RA = ((APC − ANC) − ASA)/(APC − ANC), where APC, ANC, and ASA represent the absorbance of positive control, negative control, and samples, respectively. The bacteria and yeast strains used were Escherichia coli (NBRC14237), Staphylococcus aureus (NBRC12732), Pseudomonas aeruginosa (NBRC12582), and Saccharomyces cerevisiae (NBRC10217), which were purchased from Biological Resource Center, National Institute of Technology and Evaluation (NBRC, Tokyo, Japan). The interaction between Ciona LCAMPs and membrane interface was predicted using AmphipaSeek server (https://npsa-pbil.ibcp.fr/cgi-bin/npsa_automat.pl?page=/NPSA/npsa_amphipaseek.html)[28].

The conditions of test [2]: cited from earlier work. On the procedure: We examined the effects of five novel Ciona LCAMPs in the presence of NaCl on antimicrobial activity against E. coli. Reflective of the habitat of C. intestinalis, salt resistance was found in all peptides at the concentration of 12.5 μM (Fig. 2).
The subject of test [3] is Pseudomonas aeruginosa (NBRC12582). In kind it is cell-based. On the procedure:
as §1

The subject of test [4] is Saccharomyces cerevisiae (NBRC10217). The test is classed as cell-based. The protocol:
as §1

The subject of test [5] is Staphylococcus aureus (NBRC12732). The test is classed as cell-based. On the procedure: as §1
The test system of test [6] is bacteria. The note with it: in vitro development-resistance studies; cited from earlier work. An excerpt: Antimicrobial peptides are crucial and widespread effector molecules of the innate immune system and are a part of the first line of host defense against invading pathogens[1],[2]. To date, thousands of antimicrobial peptides have been identified from bacteria to mammals and have been classified into several groups on basis of the structure and sequence features[3]–[5]. Of these, linear cationic α-helical antimicrobial peptides (LCAMPs), the genes of which encode short amphipathic peptides without cysteine residues, are the most abundant and widespread in organisms. LCAMPs are known for their ...

As for “AERLMRKAAKDHWSNKMAKDVIWWEQ [KH.S930.2, cationic amphipathic α-helical segment with Na4vSS less than − 30, synthetic peptide]”, in test [1], the “Antimicrobial activity against Escherichia coli (in words)” value (“Antimicrobial activity … (in words)” for short) is listed as “no or weak antimicrobial activities”. As for “ALRSAVRTVARVGRAVLPHVAI [Ci-PAP-A, known salt-resistant LCAMP from C. intestinalis hemocyte EST database]”, the “NaCl concentration in the presence of which antimicrobial activity is exhibited” value in test [2] is 100 mM. Regarding “FGRRRRVPGRRRRWWNERAMNEI [KH.S1007.2, cationic amphipathic α-helical segment with Na4vSS less than − 30, synthetic peptide]”, in test [1], the “Antimicrobial activity … (in words)” value is listed as “no or weak antimicrobial activities”. Still for that read-out and setting: the entry for “FRRRRRRRRHWHHHHHYHYHHHRRRRRRRRRW [KH.L63.9, cationic amphipathic α-helical segment with Na4vSS less than − 30, synthetic peptide]” is “no or weak antimicrobial activities”. On to KGGKFLNFLKKAAKVGAKVGMAALG [KH.S908.1], for which the “MIC, E. coli (NBRC 14237)” value in test [1] was < 3.125 µM. The “MIC, P. aeruginosa (NBRC 12582)” value in test [3] was 6.25 µM. Further, in test [4], the “MIC, S. cerevisiae (NBRC 10217)” value amounted to 6.25 µM. Besides, in test [5], the “MIC, S. aureus (NBRC 12732)” value was < 3.125 µM.

Turning to “KLKTWPKNYWRKVWSKKNWRKFVKKFKHW [KH.S921.1]”, the “MIC, E. coli (NBRC 14237)” value in test [1] was < 3.125 µM. In addition, the “MIC, P. aeruginosa (NBRC 12582)” value in test [3] was < 3.125 µM. The “MIC, S. aureus (NBRC 12732)” value in test [5] is < 3.125 µM. Consider “RRRRRIAARIGSGVAQTGGELI [KH.C1.365, cationic amphipathic α-helical segment with Na4vSS less than − 30, synthetic peptide]”, for which the “Antimicrobial activity … (in words)” value in test [1] is reported as “no or weak antimicrobial activities”. For the substance SRRRFDFSRRRIYVARRRSLAFAHRRR [KH.C7.94], the “MIC, E. coli (NBRC 14237)” value in test [1] was found to be 6.25 µM. In addition, in test [4], the “MIC, S. cerevisiae (NBRC 10217)” value is 6.25 µM. Also, the “MIC, S. aureus (NBRC 12732)” value in test [5] was 6.25 µM. With TINKKFRWHGKRKWWLRFVKQ [KH.S1531.4], the “MIC, E. coli (NBRC 14237)” value in test [1] was < 3.125 µM. For the same substance, the “MIC, S. cerevisiae (NBRC 10217)” value in test [4] was determined as 6.25 µM. For the same substance, in test [5], the “MIC, S. aureus (NBRC 12732)” value is < 3.125 µM. On to “WRSLGRTLLRLSHALKPLARRSGW [Ci-MAM-A, known salt-resistant LCAMP from C. intestinalis hemocyte EST database]”, for which the “NaCl concentration in the presence of which antimicrobial activity is exhibited” value in test [2] is on record as 450 mM. On to WWLSRRRSSLFYWR [KH.C1.640], for which the “MIC, E. coli (NBRC 14237)” value in test [1] is < 3.125 µM. Moreover, the “MIC, S. cerevisiae (NBRC 10217)” value in test [4] is 12.5 µM. For the same substance, the “MIC, S. aureus (NBRC 12732)” value in test [5] was < 3.125 µM. Regarding pexiganan, the “Potential for induction of bacterial resistance” value in test [6] is listed as “low potential for induction of bacterial resistance”.

Source of the values: PMC7387483, “In silico identification and functional validation of linear cationic α-helical antimicrobial peptides in the ascidian Ciona intestinalis” (Scientific Reports, 2020).
